Measurements taken from patent US20230381774A1, “MICROFLUDIC LAB-ON-CHIP DEVICE, MATRIX, SMALL MOLECULES AND THREE-DIMENSIONAL SPHEROIDS FOR CELL REPROGRAMMING” (The Regents of the University of California, priority 2022, published 2023).

Test system: Ascl1-transduced fibroblasts
Experiment: Single-factor (Ascl1-only) iN reprogramming
Assay type: cell-based, mouse
Conditions: 10 μM, relative to control
Method: After transduction, mouse fibroblasts were seeded onto multi-well tissue culture-treated polystyrene dishes (Falcon) coated with laminin (0.1 mg/ml, Corning) at 4,000 cells per cm^2. Twenty-four hours after seeding, the medium was replaced to MEF medium containing doxycycline (2 μg/ml, Sigma). The following day (i.e., day 1) the medium was changed to N3 medium (DMEM/F12 [GIBCO]+N2 supplement [Invitrogen]+B27 supplement [Invitrogen]+1% penicillin/streptomycin [Gibco]+ doxycycline [2 μg/ml, Sigma]) and the cultures were maintained in this medium for the duration of the experiments. For Ascl1-only reprogramming, N3 medium was further supplemented with BDNF (5 ng/ml, R&D systems) and GDNF (5 ng/ml, R&D systems) after day 7. […] After culturing for the desired length (14 days for BAM and 21 days for Ascl1 only), the induced neuronal (iN) cells were analyzed and the reprogramming efficiency was determined.
The reprogramming efficiency was determined by as the percentage of TUBB3^+ iN cells in each condition normalized to the number of cells plated at 24 hours post-seeding. […]

Cc1ccc2c(c1)C(=O)C1(O)CCN(c3ccccc3)C1=N2 (stereo not shown) [blebbistatin]
iN cell generation from Ascl1-transduced fibroblasts: could generate significantly more iN cells from Ascl1-transduced fibroblasts relative to control
